Source: patent publication US8999956B2, “N-[(het)arylalkyl)] pyrazole(thio)carboxamides and their heterosubstituted analogues” (Bayer Intellectual Property GmbH, priority 2010, dated 2015)
Like-named read-outs stand apart in the source and are kept apart here.

Assays:
[1] = tested on: Leptosphaeria nodorum; assay: In vivo preventive test on Leptosphaeria nodorum (wheat); settings: 500 ppm of active ingredient, evaluated 7-9 days after inoculation
Procedure: Solvent: 49 parts by weight of N,N-dimethylacetamide Emulsifier: 1 part by weight of alkylaryl polyglycol ether To produce a suitable preparation of active compound, 1 part by weight of active compound is mixed with the stated amounts of solvent and emulsifier, and the concentrate is diluted with water to the desired concentration. To test for preventive activity, young plants are sprayed with a preparation of active compound at the stated rate of application. One day after this treatment, the plants are inoculated with an aqueous spore suspension of Leptosphaeria nodorum.

[2] = tested on: Pyrenophora teres; assay: In vivo preventive test on Pyrenophora teres (barley); settings: 500 ppm of active ingredient, evaluated 7-9 days after inoculation
In short: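 Preventive test: young barley plants received a water-diluted spray of compound formulated with DMF solvent plus alkylaryl polyglycol ether emulsifier, at the stated rate. Inoculation with an aqueous spore suspension of Pyrenophora teres followed one day after spraying.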

[3] = tested on: Alternaria solani; assay: In vivo preventive test on Alternaria solani (tomato); settings: 500 ppm of active ingredient, evaluated 7 days after inoculation
In short: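 Preventive set-up: Alternaria solani spores, as aqueous suspension, applied to young plants one day after spraying. Spray contained active compound formulated with N,N-dimethylformamide and emulsifier, water-diluted to the desired application rate.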

[4] = tested on: Puccinia triticina; assay: In vivo preventive test on Puccinia triticina (wheat); settings: Table K, 500 ppm of active ingredient, evaluated 8 days after inoculation
[5] = log P by HPLC on reversed-phase column (EEC Directive 79/831 Annex V.A8); format: physicochemical
Procedure: In table 1, the log P values were determined in accordance with EEC Directive 79/831 Annex V.A8 by HPLC (High Performance Liquid Chromatography) on a reversed-phase column (C18), using the method described below: Temperature: 40° C.; […]

[6] = tested on: Aspergillus parasiticus; assay: microbe, parasite or virus in culture; format: cell-based
[7] = tested on: aflatoxines produced by Aspergillus parasiticus; assay: microbe, parasite or virus in culture; format: cell-based
[8] = tested on: Sphaerotheca fuliginea; assay: In vivo preventive test on Sphaerotheca fuliginea (cucumber); settings: 500 ppm of active ingredient, evaluated 7 days after inoculation
Procedure: Solvent: 49 parts by weight of N,N-dimethylformamide Emulsifier: 1 part by weight of Alkylarylpolyglycolether To produce a suitable preparation of active compound, 1 part by weight of active compound is mixed with the stated amounts of solvent and emulsifier, and the concentrate is diluted with water to the desired concentration. To test for preventive activity, young plants are sprayed with the preparation of active compound at the stated rate of application. One day after this treatment, the plants are inoculated with an aqueous spore suspension of Sphaerotheca fuliginea. Then the plants are placed in a greenhouse at approximately 23° C. and a relative atmospheric humidity of approximately 70%.

SMILES	Efficacy [1] [%]	Efficacy [2] [%]	Efficacy [3] [%]	Efficacy [4] [%]	logP [5]	% Inhibition of fungal growth at 50 μM ([6]; 50 µM) [%]	% Inhibition of Aflatoxin at 50 μM [7] [%]	Efficacy [8] [%]	Efficacy ([1]; listed as example E-12 disclosed in patent application WO-2008/101976)	% Inhibition of fungal growth at 50 μM [6] [%]
CC(CCc1ccc(Cl)c(Cl)c1)N(C(=O)c1c(C(F)F)nn(C)c1Cl)C1CC1 (racemic) [Example 130]	90	95	95	70	4.62					
CC(CCc1ccc(Cl)c(Cl)c1)NC(=O)c1c(C(F)F)nn(C)c1Cl (racemic) [Example 131]	80	100	95		3.85					
CC(C)CC(C)C1CCCC1NC(=O)c1c(C(F)F)nn(C)c1F (single isomer, unassigned) [Example 318]	70	100	90		4.27 isomer C	89	100	93		
Cc1nn(C)c(F)c1C(=O)N(C(C)CCc1ccccc1C(F)(F)F)C1CC1 (stereo not drawn) [E-12 from WO-2008/101976, N-cyclopropyl-5-fluoro-1,3-dimethyl-N-{4-[2-(trifluoromethyl)phenyl]butan-2-yl}-1H-pyrazole-4-carboxamide, reference compound]	10								less than 10%	
Cn1nc(C(F)F)c(C(=O)N(CCOc2ccc(-c3ccccc3)cc2)C2CC2)c1F [Example 29]	80	100	80		3.90					
Cc1ccnc(OCC(C)NC(=O)c2c(C(F)F)nn(C)c2Cl)c1 (stereo not drawn) [Example 37]	90	100	80		2.13					
CC(CCc1ccc(C(F)(F)F)cc1)NC(=O)c1c(C(F)F)nn(C)c1Cl (stereo not drawn) [Example 70]		100	95		3.63		97	75		78
CC(CCc1ccc(C(F)(F)F)cc1)NC(=O)c1c(C(F)F)nn(C)c1F (stereo not drawn) [Example 71]		100	95		3.46		100	95		83
CCC(CCc1sccc1Br)NC(=O)c1c(C(F)F)nn(C)c1F (stereo not drawn) [Example 89]		100	80		3.46		100	88		89
Cc1cccc(C)c1CCC(C)NC(=O)c1c(C(F)F)nn(C)c1Cl (stereo not drawn) [Example 153]		100		95	3.61		100	100		99
Cc1cccc(C)c1CCC(C)NC(=O)c1c(C(F)F)nn(C)c1F (stereo not drawn) [Example 154]		100	100	70	3.41		100	100		100
CC(CNC(=O)c1c(C(F)F)nn(C)c1F)Cc1c(F)cccc1F (stereo not drawn) [Example 157]	80	100	80		3.02					
CC(CCc1c(Cl)cccc1Cl)NC(=O)c1c(C(F)F)nn(C)c1F (stereo not drawn) [Example 163]		100	100	80	3.59		100	100		100
CN(CCCc1cc(Cl)ccc1Cl)C(=S)c1c(C(F)F)nn(C)c1F [Example 168]	90	100	90		4.11					
CC(CCc1cc(Cl)ccc1Cl)NC(=O)c1c(C(F)F)nn(C)c1F (stereo not drawn) [Example 172]		100	100		3.68		100	93		100
CC(N(C(=O)c1c(C(F)F)nn(C)c1Cl)C1CC1)C(C)(C)Cc1ccc(Cl)cc1Cl (stereo not drawn) [Example 182]		100	95		5.39		100	75		90

SMILES	Efficacy [1] [%]	Efficacy [2] [%]	Efficacy [3] [%]	Efficacy [4] [%]	logP [5]	% Inhibition of fungal growth at 50 μM ([6]; 50 µM) [%]	% Inhibition of Aflatoxin at 50 μM [7] [%]	Efficacy [8] [%]	Efficacy ([1]; listed as example E-12 disclosed in patent application WO-2008/101976)	% Inhibition of fungal growth at 50 μM [6] [%]
Cn1nc(C(F)F)c(C(=O)NC(C)(C)CCc2ccc(Cl)cc2Cl)c1F [Example 196]		100	95		4.39		100	75		91
Cn1nc(C(F)F)c(C(=O)NC2CCCCC2Oc2ccccc2)c1F (stereo not drawn) [Example 245]	90	78	90	70	3.52					
Cn1nc(C(F)F)c(C(=O)N(C[Si](C)(C)Cc2ccccc2)C2CC2)c1Cl [Example 287]	95	100	95		4.20					
Cn1nc(C(F)F)c(C(=O)N(C[Si](C)(C)Cc2cccc(Cl)c2)C2CC2)c1Cl [Example 290]	80	100	95		4.59		82			72
Cn1nc(C(F)F)c(C(=O)N(C[Si](C)(C)Cc2cc(Cl)cc(Cl)c2)C2CC2)c1F [Example 293]	94				4.98		100			100
Cn1nc(C(F)F)c(C(=O)N(C[Si](C)(C)Cc2ccccc2Cl)C2CC2)c1Cl [Example 294]	70	95	95		4.56		100			84
Cn1nc(C(F)F)c(C(=O)N(C[Si](C)(C)Cc2ccccc2Cl)C2CC2)c1F [Example 295]	100	100	100		4.41		100			100
Cn1nc(C(F)F)c(C(=S)N(C[Si](C)(C)Cc2ccccc2Cl)C2CC2)c1F [Example 296]	95	100	80		5.00			70		
Cn1nc(C(F)F)c(C(=S)N(C[Si](C)(C)Cc2ccc(Cl)cc2Cl)C2CC2)c1F [Example 299]	95	100	95		5.57					
CC(C)CCC1CCCC1NC(=O)c1c(C(F)F)nn(C)c1Cl (stereo not drawn) [Example 309]		100	100		4.20		100	98		82
CC(C)CC1CCCCC1NC(=O)c1c(C(F)F)nn(C)c1F (stereo not drawn) [Example 340]		100	100		3.94		100	90		95
Cn1nc(C(F)F)c(C(=O)N(C2CC2)C2CCCCC2C(C)(C)C)c1F (stereo not drawn) [Example 350]		100	90		4.71		100	100		100
CCC1(CNC(=O)c2c(C(F)F)nn(C)c2Cl)CCCCC1 [Example 365]	90				3.78					
CC1CCCC(C)(C)C1CCC(C)N(C(=O)c1c(C(F)F)nn(C)c1F)C1CC1 (stereo not drawn) [Example 367]		100	90		5.81		100	100		100
CC1CCCC(C)(C)C1CCC(C)N(C(=O)c1c(C(F)F)nn(C)c1Cl)C1CC1 (stereo not drawn) [Example 368]		95	80		6.07		100	93		93
